Reference: US9376424B2, “Methods for treating post traumatic stress disorder” (AZEVAN PHARMACEUTICALS, INC., priority 2010, dated 2016)
Read-outs that look alike come from different tables or passages of the source.

Target: T1, human V1a receptor (Homo sapiens, UniProt P37288)
T1 construct: host or cells: CHO cells
Experiment: Human vasopressin V1a receptor binding assay (3H-AVP competition, hV1a cell line)
Description: Human vasopression V1a receptor binding assay. A cell line expressing the human V1a receptor in CHO cells (henceforth referred to as the hV1a cell line) was obtained from Dr. Michael Brownstein, NIMH, Bethesda, Md., USA. The hV1a cDNA sequence is described by Thibonnier et al., Journal of Biological Chemistry, 269, 3304-3310 (1994), and the expression method was the same as described by Morel et al. (1992). The hV1a cell line was grown in alpha-MEM with 10% fetal bovine serum and 250 ug/ml G418 (Gibco, Grand Island, N.Y., USA). For competitive binding assay, hV1a cells were plated into 6-well culture plate at 1:10 dilution from a confluency flask, and maintained in culture for at least two days. Culture medium was then removed, cells were washed with 2 ml binding buffer (25 mM Hepes, 0.25% BSA, 1×DMEM, PH=7.0). To each well, 990 μl binding buffer containing 1 nM 3H-AVP was added, and followed by 10 μl series diluted Example compounds dissolved in DMSO. […] 100 nM cold AVP (Sigma) was used to assess non-specific binding. Cells were incubated for 45 minutes at 37° C., assay mixture was removed and each well was washed three times with PBS (pH=7.4). 1 ml 2% SDS was added per well and plates were let sit for 30 minutes. The whole content in a well was transferred to a scintillation vial. Each well was rinsed with 0.5 ml PBS which was then added to the corresponding vial. Scintillation fluid (Ecoscint, National Diagnostics, Atlanta, Ga.) was then added at 3 ml per vial. Samples were counted in a liquid scintillation counter (Beckman LS3801). IC50 values were calculated by Prism Curve fitting software.
All of the alkanedioic esters and amides exemplified in the foregoing examples dissolved in DMSO were tested in this assay. Binding curves were generated according to methods described by Thibonnier et al. (1994). [^3H]-AVP was added to the hV1a cell cultures followed by 10-fold dilutions of each test compound.

T1 sequence (P37288 whole entry): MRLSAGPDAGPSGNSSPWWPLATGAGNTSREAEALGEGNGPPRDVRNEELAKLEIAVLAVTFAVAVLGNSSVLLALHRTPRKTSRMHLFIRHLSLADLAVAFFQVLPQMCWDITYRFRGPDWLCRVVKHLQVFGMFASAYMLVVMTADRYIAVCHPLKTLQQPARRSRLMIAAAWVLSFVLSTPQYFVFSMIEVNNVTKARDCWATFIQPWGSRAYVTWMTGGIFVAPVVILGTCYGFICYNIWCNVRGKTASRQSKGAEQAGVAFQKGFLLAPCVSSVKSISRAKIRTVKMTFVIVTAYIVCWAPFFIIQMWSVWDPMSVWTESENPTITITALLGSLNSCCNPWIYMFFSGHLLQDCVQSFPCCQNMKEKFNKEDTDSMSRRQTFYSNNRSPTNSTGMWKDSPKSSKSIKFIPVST

CN(Cc1cccc(C(F)(F)F)c1)C(=O)[C@@H](CC(=O)N1CCC(N2CCCCC2)CC1)N1C(=O)[C@@H](N2C(=O)OC[C@@H]2c2ccccc2)[C@H]1C=Cc1ccccc1 [Example 225, 2(R)-[[4-(Piperidinyl)piperidinyl]carbonylmethyl]-2-[3(S)-(4(S)-phenyloxazolidin-2-on-3-yl)-4(R)-(2-styryl)azetidin-2-on-1-yl]acetic acid N-methyl-N-(3-trifluoromethylbenzyl)amide]
IC50 (CHO cells expressing human V1a, 1 nM 3H-AVP, read-out: V1a Binding Affinity IC50): 1.08 nM
Ki (CHO cells expressing human V1a, 1 nM 3H-AVP, read-out: V1a Ki): 0.66 nM
IC50 (read-out: IC50, dose-dependent competitive binding curve, hV1a cell line, [3H]-AVP): 1.86 to 2.13 nM
Ki (read-out: Ki, dose-dependent competitive binding curve, hV1a cell line, [3H]-AVP): 1.14 to 1.3 nM
Ki (selectivity table, read-out: inhibition data (Ki, nM), Receptor V1a): 0.66 nM
